Here are results for three molecules from PMC10860144, “Exploring the Dispersion and Electrostatic Components in Arene–Arene Interactions between Ligands and G4 DNA to Develop G4-Ligands” (Journal of Medicinal Chemistry, 2024).

The target in one experiment is c-MYC Pu22 G4 DNA. Nature of the experiment: Microscale thermophoresis (MST), c-MYC Pu22 G4 DNA. In kind it is binding, human. Particulars: Cy5-labeled c-MYC Pu22 G4 DNA 25 nM; pH 7.4, 100 mM KCl; read-out: apparent Kd (MST). The procedure: To evaluate the apparent binding affinities (Kd) for the compound series, we next used microscale thermophoresis (MST) with fluorescently labeled c-MYC Pu22 G4 DNA (Table S1). Overall, the measured MST binding results for compounds 2–11 corresponded well with the results from the FRET assay (Figures 2B and S3).
5′-Cy5 labeled G4 DNAs for this study were purchased from Eurofins Genomics. Stock solutions were prepared in water at 100 μM concentration. The sequences used are listed in Supporting Information Table S1. The G4 DNA sequences were folded in KCl buffer (10 mM phosphate, 100 mM KCl, pH 7.4) by heating at 95 °C for 5 min and then cooling to room temperature. All the experiments were performed in 10 mM phosphate pH 7.4, 100 mM KCl, and 0.05% Tween20. The labeled DNA concentration is held constant at 25 nM, and ligand concentration is varied depending on ligands Kd (16 1:3 dilutions). The samples were loaded into standard MST graded glass capillaries and initial fluorescence intensity of the capillary was measured using Monolith NT.115 (Nano Temper, Germany) with 20% LED power. The change in fluorescence with ligand’s concentrations were plotted in Excel and fitted through nonlinear equation to obtain the binding constants. […]
Microscale Thermophoresis (MST)
5'- Cy5 labelled G4 DNAs for this study were purchased from Eurofins Genomics. Stock solutions were prepared in water at […] concentration. The sequences used are listed in supplementary Table S1. The G4 DNA sequences were folded in KCl buffer (10 mM phosphate, 100 mM KCl, pH 7.4) by heating at 95 °C for 5 min and then cooling to room temperature. All the experiments were performed in 10 mM phosphate pH 7.4, 100 mM KCl, 0.05% Tween20. The labelled DNA concentration is held constant at 25 nM and ligand concentration is varied depending on ligands Kd (sixteen 1:3 dilutions). The samples were loaded into standard MST graded glass capillaries and initial fluorescence intensity of the capillary were measured using Monolith NT.115 (Nano Temper, Germany) with 20% LED power. The change in fluorescence with ligand's concentrations were plotted in Excel and fitted through non-linear equation to obtain the binding constants.
(1 picture or pasted object on this page, not shown here)
In general terms: MST reads how a fluorescent partner responds to local heating, with and without ligand.

For experiment [1], the system named is G4 structure on DNA template (PEPu24T). As to the kind of experiment: Taq polymerase stop (primer extension) assay, G4 template. It is filed as biochemical. The text has this:
To challenge all the synthesized compounds (2–11 and 25–29) in a more intricate context, we conducted a Taq polymerase stop assay to evaluate their capacity to impede DNA synthesis through G4 stabilization. In this assay, we compared the progress of the Taq DNA polymerase along two distinct DNA templates: one with a G4 structure (Figure 5) and another serving as a non-G4 control (Figure S21). If an external species (e.g., G4 ligand) binds and stabilizes the G4 structure, the polymerase will be partially halted. The extent of this DNA polymerase stalling is dependent on the ability of the compound to stabilize the G4 on the DNA template. The increased G4 stabilization can be detected as a reduction in the amount of newly synthesized DNA that has reached the end of the DNA template (full-length/end-product). Analysis of these shorter terminated DNA products will give information about the precise location of the DNA polymerase stalling with a single nucleotide resolution. If the ligand imposes little to no stabilization or binding, the G4 is readily resolved by the DNA polymerase, and no difference in the amount of DNA end-product can therefore be expected upon the addition of the compound.
Templates for the primer extension assay were created by annealing 25 nt TET labeled primer (1 μM final concentration) to either PEPu24T or a mutated sequence not forming a G4, PEPu24T mut, (1.25 μM final concentration) in 100 mM KCl by heating to 95 °C for 5 min and slowly cooling to room temperature. […] Compounds were added in the indicated concentration and incubated on ice for 10 min before starting the reaction by adding dNTPs (100 μM final concentration) to the reaction and transferring it to 37 °C. Reactions were stopped after 15 min by addition of 10 μL of formamide loading buffer (0.5% SDS, 25 mM EDTA, 95% v/v formamide and xylene-cyanol). Samples were then loaded on a 12% polyacrylamide gel containing 7 M urea and 25% formamide and imaged using an Amersham Typhoon. The images were quantified using ImageJ 1.53e software, and the percentage of full-length product compared to a sample without compound was calculated.
Templates for the primer extension assay were created by annealing 25nt TET labelled primer (1 µM final concentration) to either PEPu24T or a mutated sequence not forming a G4, PEPu24T mut, (1.25 µM final concentration) in 100 mM KCl by heating to 95 °C for 5 min and slowly cooling to room temperature. The reaction mixture (10 µl) contained 1X Taq Buffer with KCl (10 mM Tris-HCl pH 8.8, 50 mM KCl, detergent), 25 mM MgCl2, […]
[…] Compounds were added in the indicated concentration and incubated on ice for 10 min before starting the reaction by adding dNTPs (100 µM final concentration) to the reaction and transferring it to 37 °C. Reactions were stopped after 15 min by addition of 10 µl of formamide loading buffer (0,5% SDS, 25 mM EDTA, 95% v/v formamide and xylene-cyanol). Samples were then loaded on a 12% polyacrylamide gel containing 7 M urea and 25% formamide and imaged using an Amersham™ Typhoon™.
The images were quantified using ImageJ 1.53e software and the percentage of full-length product compared to a sample without compound was calculated. […]

The target of a further experiment is Pu24T c-MYC G4 structure. As to the kind of experiment: Kd for binding to the Pu24T c-MYC G4 structure (supplementary CSV). On the set-up: species or system human. The procedure: 5′-Cy5 labeled G4 DNAs for this study were purchased from Eurofins Genomics. Stock solutions were prepared in water at 100 μM concentration. The sequences used are listed in Supporting Information Table S1. The G4 DNA sequences were folded in KCl buffer (10 mM phosphate, 100 mM KCl, pH 7.4) by heating at 95 °C for 5 min and then cooling to room temperature. All the experiments were performed in 10 mM phosphate pH 7.4, 100 mM KCl, and 0.05% Tween20. The labeled DNA concentration is held constant at 25 nM, and ligand concentration is varied depending on ligands Kd (16 1:3 dilutions). The samples were loaded into standard MST graded glass capillaries and initial fluorescence intensity of the capillary was measured using Monolith NT.115 (Nano Temper, Germany) with 20% LED power. The change in fluorescence with ligand’s concentrations were plotted in Excel and fitted through nonlinear equation to obtain the binding constants.
The Supporting Information is available free of charge at https://pubs.acs.org/doi/10.1021/acs.jmedchem.3c02127. • Experimental procedures and data; assay data, computational results, and all cell data; NMR (^1H and ^13C) spectra for all compounds (with the exception of a few intermediates); and HPLC UV traces for the final compounds (PDF) • Molecular formula strings and Kd values for binding to the Pu24T c-MYC G4 structure (CSV)

As to `Cc1cc(NCCCN(C)C)nc(Nc2ncc3ccccc3n2)n1` [Compound 2, N4-(3-(Dimethylamino)propyl)-6-methyl-N2-(quinazolin-2-yl)pyrimidine-2,4-diamine], the Kd at c-MYC Pu22 G4 DNA was 1.4 µM; on Pu24T c-MYC G4 structure it was 1.4 ± 0.3 µM. In addition, in experiment [1] (compound 0.24 μM, compared to DMSO control), the “full-length DNA product” value was “about 65%”.
`Cc1cc(C)c2nc(Nc3nc(C)cc(NCCCN(C)C)n3)nc(C)c2c1` [Compound 5, N4-(3-(Dimethylamino)propyl)-6-methyl-N2-(4,6,8-trimethylquinazolin-2-yl)pyrimidine-2,4-diamine]: the Kd worked out at 0.05 µM on c-MYC Pu22 G4 DNA and 0.05 ± 0.004 µM on Pu24T c-MYC G4 structure. Moreover, in experiment [1] (compound 0.24 μM), the “blocking of the Taq DNA polymerase at the G4 structure (in words)” value is given as “almost completely blocked”.
On to `Cc1cc(C)c2nc(Nc3nc(C)cc(C)n3)nc(C)c2c1` [Compound 27, N-(4,6-Dimethylpyrimidin-2-yl)-4,6,8-trimethylquinazolin-2-amine], for which the Kd on c-MYC Pu22 G4 DNA stood at 0.8 µM; at Pu24T c-MYC G4 structure, 0.8 ± 0.1 µM. The IC50 in experiment [1] (G4 template, DNA 0.048 μM, read-out: concentration reaching 50% inhibition of DNA end-product) amounted to 1.2 µM.
